This note sets out measurements from patent US20260174769A1, “MACROCYCLIC COMPOUNDS AND METHODS OF USE” (AMGEN INC., priority 2022, published 2026).

The conditions of data set [1]: 16-membered ring.
The conditions of data set [2]: 16-membered ring. The source holds these as a separate data set.
The test system of another data set is MIA PaCa-2 cells. The experiment in a line: MIA PaCa-2 CTG Assay (CellTiter-Glo cell viability, 72 h). Conditions: second value of cell, read-out: G12D/C/V Cell Proliferation CTG (72 h) Mia PaCa-2. The format is cell-based, human. The procedure: MIA PaCa-2 CTG Assay Protocol
(§1) Serially-diluted compound or DMSO was added to the cells, and plates were incubated at 37° C., 5% CO2 for 72 h. Cell viability was measured using a CellTiter-Glo® Luminescent Cell Viability Assay kit (Promega) according to the manufacturer's protocol. The luminescence signal of treated samples was normalized to DMSO control, and data were analyzed using a 4-parameter logistic model to calculate IC50 values.
A general note: ATP-based viability assays read luminescence as a measure of living cells.

The test system of data set [3] is Phosphorylation of ERK1/2 in AsPC-1 cells. The experiment in a line: Phospho-ERK1/2 MSD Assay. The format is cell-based, human. The conditions noted are these: read-out: 2 h p-ERK (AsPC-1 cells), IC50. The procedure:
Sixteen hours prior to compound treatment, AsPC-1 cells were seeded in 96-well cell culture plates at a density of 25,000 cells/well and incubated at 37° C., 5% CO2. A compound dose-response titration was diluted in growth media, added to appropriate wells of a cell culture plate, and then incubated at 37° C., 5% CO2 for 2 hours. […] Phosphorylation of ERK1/2 in compound-treated lysates was assayed using Phospho-ERK 1/2 Whole Cell Lysate kits (Meso Scale Discovery K151DWD) according to the manufacturer's protocol. Assay plates were read on a Meso Scale Discovery Sector Imager 6000, and data were analyzed using a 4-parameter logistic model to calculate IC50 values.

A further data set concerns AsPC-1 cells. The data set can be described thus: AsPC-1 CTG Assay (CellTiter-Glo cell viability, 72 h). Conditions: read-out: G12D/C/V Cell Proliferation CTG (72 h) AsPC-1. Format: cell-based, human. Here is the method: AsPC-1 and SW620 CTG Assay Protocols
as §1

In data set [4] the test system is phospho-ERK1/2 in PANC 04.03 tumors. The data set can be described thus: Tumor Pharmacodynamic Assay (p-ERK inhibition in PANC 04.03 tumor-bearing mice). The format is in vivo. The conditions noted are these: PANC 04.03 tumor-bearing female athymic nude mice; single oral dose 100 mg/kg; tumors harvested 2 hours later; p-ERK1/2 normalized to total ERK1/2, relative to vehicle group. The procedure:
Tumor Pharmacodynamic Assays
Inhibitor pharmacodynamic effects were assessed in PANC 04.03 tumor-bearing mice. PANC 04.03 tumor cells (5.0E+06 cells) were injected subcutaneously into the flank of female athymic nude mice in a mixture with Matrigel (BD Bioscience). Mice received a single oral dose of either vehicle or inhibitors (100 mg/kg) when the average tumor size reached ˜300-600 mm^3 (n=3/group) and harvested 2 hours later. Tumor samples were collected, snap frozen, and processed for analysis by pulverizing with a cryoPREP® Dry Impactor (Covaris). Pulverized samples were resuspended in RIPA lysis buffer containing protease and phosphatase inhibitors and homogenized. Cleared lysates were analyzed using phospho-ERK1/2 and total ERK1/2 whole cell lysate kits (Meso Scale Discovery) according to the manufacturer's protocol. Phospho-ERK1/2 signal was normalized to total ERK1/2 signal for a given sample, and percent inhibition of p-ERK was calculated relative to the vehicle group.

Data set [5] addresses His-tagged KRAS G12D protein (Homo sapiens, UniProt P01116, G12D). The data set can be described thus: KRAS G12D TR-FRET Assay. The format is binding. In a few lines:
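GDP-loaded His-KRAS G12D (20 nM in HEPES pH 7.4, MgCl2, NaCl, BSA, Tween-20, 10 μM GDP) preincubated with compound 30 min at room temperature, then 20 nM biotinylated KRPep-2d peptide added for 1 h. TR-FRET detection used Eu anti-His and streptavidin-d2, read after 1 h.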
On the technique in general: TR-FRET usually uses a lanthanide donor and a delayed reading to cut background.

Data set [6] concerns the target GDP-bound KRAS protein (aa 1-169), containing both G12D and C118A amino acid substitutions (Homo sapiens, UniProt P01116, C118A/G12D). The data set can be described thus: KRAS G12D Coupled Nucleotide Exchange Assay. Format: biochemical. The procedure: KRAS G12D Coupled Nucleotide Exchange Assay
The assay plates were then read on a PerkinElmer En Vision Multilabel Reader, using AlphaScreen® technology, and data were analyzed using a 4-parameter logistic model to calculate IC50 values.

Setting [7] is: Homo sapiens, ASPC1, 2 h, AsPC-1 cells, 2 h compound treatment.
[8] abbreviates: Homo sapiens, ASPC1, 72 h, AsPC-1 cells, 72 h, first value of cell.

Like-named read-outs stand apart in the source and are kept apart here.

Chain of His-tagged KRAS G12D protein (P01116 1-188 isoform P01116-2 G12D): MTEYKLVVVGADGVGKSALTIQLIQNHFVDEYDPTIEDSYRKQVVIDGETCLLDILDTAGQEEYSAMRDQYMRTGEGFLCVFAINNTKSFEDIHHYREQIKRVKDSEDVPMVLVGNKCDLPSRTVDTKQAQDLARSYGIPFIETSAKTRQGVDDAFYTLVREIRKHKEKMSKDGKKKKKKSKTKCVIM
Chain of GDP-bound KRAS protein (aa 1-169), containing both G12D and C118A amino acid substitutions (P01116 1-169 isoform P01116-2 G12D/C118A): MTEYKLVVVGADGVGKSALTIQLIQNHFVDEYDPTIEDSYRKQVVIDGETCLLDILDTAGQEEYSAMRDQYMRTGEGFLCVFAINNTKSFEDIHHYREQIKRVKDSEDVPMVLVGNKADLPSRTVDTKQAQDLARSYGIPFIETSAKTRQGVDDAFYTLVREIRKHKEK

As for `CN1C(=O)CCCCc2c(Cl)cc3[nH]ncc3c2-c2cc3nc(OC[C@@]45CCCN4C[C@H](F)C5)nc(c3nn2)N2CCC[C@@H]1C2`, the ring closure, yield after HPLC in data set [1] (from CN[C@@H]1CCCN(c2nc(OC[C@@]34CCCN3C[C@H](F)C4)nc3cc(-c4c(CCCCC(=O)O)c(Cl)cc5[nH]ncc45)nnc23)C1, amide bond, EDCI/HOBt/DIEA, DCM, 10.3 mM, 25.0 °C, 36.0 h, 3 steps) came out at 20%.
`CN1C(=O)OCCCc2c(Cl)cc3[nH]ncc3c2-c2ncc3c(nc(OC[C@@]45CCCN4C[C@H](F)C5)nc3c2F)N2CCC[C@@H]1C2` had a ring closure, yield after HPLC in data set [1] (from CN(C(=O)OCCCc1c(Cl)cc2[nH]ncc2c1-c1ncc2c(O)nc(OC[C@@]34CCCN3C[C@H](F)C4)nc2c1F)[C@@H]1CCCNC1, snar bond, PyBroP/DIEA, MeCN/DMSO, 11.7 mM, 25.0 °C, 2 steps) of 14%.
Regarding `CSc1nc2c3cnc(c(C)c3n1)-c1cc(O)cc3ccc(F)c(c13)CCCC(=O)N[C@]1(C)CCCN2C1`, the ring closure, yield after HPLC in data set [1] (from CSc1nc(N2CCC[C@@](C)(N)C2)c2cnc(-c3cc(O)cc4ccc(F)c(CCCC(=O)O)c34)c(C)c2n1, amide bond, HATU, then Me2NH, DCM/DMA/DMF, 5.6 mM, 25.0 °C) came out at 32%.
In data set [1] (the molecule shown is the open-chain precursor, snar bond), `Cc1cc2[nH]ncc2c(-c2ncc3c(O)nc(OC[C@@]45CCCN4C[C@H](F)C5)nc3c2F)c1CCOC(=O)OC[C@@H]1CCCNC1` had a ring closure, yield after HPLC of 20%.
As for `Cc1cc2c(cnn2C2CCCCO2)c2c1CCCCC(=O)N[C@@H]1CCCN(C1)c1nc(OC[C@@]34CCCN3C[C@H](F)C4)nc3c(F)c-2ncc13` (stereo partly drawn), in data set [2] (from Cc1cc2c(cnn2C2CCCCO2)c(-c2ncc3c(N4CCC[C@@H](N)C4)nc(OC[C@@]45CCCN4C[C@H](F)C5)nc3c2F)c1CCCCC(=O)O, amide bond, HATU/DIEA, DMA, 4.7 mM, 25.0 °C, 1.5 h), the ring closure, isolated yield is 22%.
As for `Cc1cc2c(cnn2C2CCCCO2)c2c1CCCn1ncc(n1)C1CCCN(C1)c1nc(OC[C@@]34CCCN3C[C@H](F)C4)nc3c(F)c-2ncc13` (stereo partly drawn), the ring closure, isolated yield in data set [2] (from Cc1cc2c(cnn2C2CCCCO2)c(-c2ncc3c(N4CCCC(c5cn[nH]n5)C4)nc(OC[C@@]45CCCN4C[C@H](F)C5)nc3c2F)c1CCCCl, other bond, K2CO3/TBAI, MeCN, 6.9 mM, 85.0 °C, 3.0 h) worked out at 31%.
For `O=C1CCCc2c(F)ccc3cccc(c23)-c2ncc3c(nc(OC[C@@]45CCCN4C[C@H](F)C5)nc3c2F)N2CCC[C@H](C2)N1`, the ring closure, yield after HPLC in data set [1] (from N[C@@H]1CCCN(c2nc(OC[C@@]34CCCN3C[C@H](F)C4)nc3c(F)c(-c4cccc5ccc(F)c(CCCC(=O)O)c45)ncc23)C1, amide bond, HATU/DIEA, DMF, 5.9 mM, 0.5 h, 2 steps) was 30%.
On to `C[C@@]12CCCCN(C1)c1nc(OC[C@@]34CCCN3C[C@H](F)C4)nc3c(F)c(ncc13)-c1c(c(Cl)cc3[nH]ncc13)CCCC(F)C(=O)N2` (mixture of isomers) [Example 281, (23RS,26R)-18-chloro-23,32-difluoro-4-(((2R,7aS)-2-fluorotetrahydro-1H-pyrrolo[1,2-a]pyrrol-7a(5H)-yl)methoxy)-26-methyl-1,3,5,9,14,15,25-heptaazahexacyclo[24.4.1.1~6,10~.0~2,7~.0~11,19~.0~12,16~]dotriaconta-2,4,6,8,10(32),11,13,16,18-nonaen-24-one], for which the IC50 with MIA PaCa-2 cells (Homo sapiens) came to 0.09 µM.
Regarding `O=C1COCCCc2c(Cl)cc3[nH]ncc3c2-c2ncc3c(nc(OC[C@@]45CCCN4C[C@H](F)C5)nc3c2F)N2CC[C@H]3CCN1[C@H]3C2` [Example 168], the IC50 worked out at 0.0013 µM in data set [3] and 0.01 µM with AsPC-1 cells. Besides, the “p-ERK (% inhibition) 2 hr.” value in data set [4] turned out to be 65%.
`C[C@@]12COCCN(C1)c1nc(OC[C@@]34CCCN3C[C@H](F)C4)nc3c(F)c(ncc13)-c1c(c(F)cc3[nH]ncc13)CCCOC(=O)O2` [Example 184, (26S)-18,32-difluoro-4-(((2R,7aS)-2-fluorotetrahydro-1H-pyrrolo[1,2-a]pyrrol-7a(5H)-yl)methoxy)-26-methyl-23,25,28-trioxa-1,3,5,9,14,15-hexaazahexacyclo[24.4.1.1~6,10~.0~2,7~.0~11,19~.0~12,16~]dotriaconta-2,4,6,8,10(32),11,13,16,18-nonaen-24-one]: the IC50 in data set [5] (TR-FRET binding) stood at 0.004 µM; in data set [6] (2 hours compound pre-incubation, SOS-mediated nucleotide exchange) it was 0.002 µM; in data set [3] (setting [7]), 0.0118 µM; in the data set with AsPC-1 cells (setting [8]), 0.12 µM.
Take `Cc1cc2[nH]ncc2c2c1CCCCOCC1CN(CCC1(F)F)c1nc(OC[C@@]34CCCN3C[C@H](F)C4)nc3c(F)c-2ncc13` (stereo partly drawn) [Example 227, (17R)-18,18,30-trifluoro-24-(((2R,7aS)-2-fluorotetrahydro-1H-pyrrolo[1,2-α]pyrrol-7a(SH)-yl)methoxy)-9-methyl-15-oxa-5,6,21.23,25,29-hexaazahexacyclo[24.3.1.1~17,21~.0~2,10~.0~3.7~.0~22,27~]hentriaconta-1(30),2,4,7,9,22,24,26,28-nonaene]: the IC50 worked out at 0.035 µM in data set [5] (read-out: KRAS G12D Binding IC50), 0.012 µM in data set [6], 0.611 µM in data set [3] and 3.91 µM in the data set on AsPC-1 cells.
On to `O=C1OCCc2c(Cl)cc3[nH]ncc3c2-c2ncc3c(nc(OC[C@@]45CCCN4C[C@H](F)C5)nc3c2F)N2CCO[C@]3(C2)C[C@H](C3)O1` [Example 248, (1R.3R)-10-chloro-32-fluoro-24-(((2R,7aS)-2-fluorotetrahydro-1H-pyrrolo[1,2-α]pyrrol-7a(SH)-yl)methoxy)-4,6,30-trioxa-1.3,14,19,23,25,27-hexaazaheptacyclo[25.3.1.1~1,3~.1~18,22~.0~9.17~.0~12,16~.0~21,26~]tritriaconta-9,11,14,16,18(32),19,21,23,25-nonaen-5-one], for which the IC50 in data set [3] (AsPC-1 cells, 2 h compound treatment) came out at 0.0078 µM; in the data set on AsPC-1 cells (AsPC-1 cells, 72 h, first value of cell), 0.013 µM; in the data set with MIA PaCa-2 cells it was 0.007 µM. In data set [4], the “p-ERK (% inhibition) 2 hr.” value was determined as 85%.
For the molecule `O=C1COCCc2c(Cl)cc3[nH]ncc3c2-c2ncc3c(nc(OC[C@@]45CCCN4C[C@H](F)C5)nc3c2F)N2CC[C@H]3CCN1[C@H]3C2` [Example 270], the IC50 in data set [5] (TR-FRET binding) is 0.007 µM; in data set [3] (setting [7]) it was 0.123 µM; in the data set with AsPC-1 cells (setting [8]), 0.606 µM; in the data set with MIA PaCa-2 cells (Homo sapiens), 0.675 µM.
